Here are results for three compounds from patent publication US20230398130A1, “METHODS AND COMPOSITIONS FOR DIFFERENTIATING STEM CELLS” (Massachusetts Institute of Technology, priority 2020, published 2023).

For assay [1], the system named is ISC-enriched organoids. The assay is described as follows: Primary screen, 384-well 2.5-D organoid differentiation (ENR+CD, 6 days, Target Selective Inhibitor Library, vs whole-plate median): ATP (CellTiter-Glo 3D, CTG). Particulars: primary screen; for Dose.FC.CTG: ENR+CD 6 days, FC vs plate median; for Z.CTG: standard z score of FC. (In general: Cellular ATP, detected with luciferase, serves as a proxy for viable cell number.)

For assay [2], the system named is ISC-enriched organoids. The experiment in a line: Primary screen, 384-well 2.5-D organoid differentiation (ENR+CD, 6 days): basal lysozyme secretion (LYZ.NS). In kind it is cell-based, murine. As to conditions: primary screen; for Dose.FC.LYZ.NS: ENR+CD 6 days, FC vs plate median; for Z.LYZ.NS: standard z score of FC. The text has this:
(§1) High-throughput screening.

Assay [3] has as its system ISC-enriched organoids. The experiment in a line: Primary screen, 384-well 2.5-D organoid differentiation (ENR+CD, 6 days): carbachol-induced lysozyme secretion (LYZ.S). In kind it is cell-based, murine. As to conditions: primary screen, ENR+CD 6 days, FC vs plate median.
Excerpt: as §1

Regarding `CN(C)Cc1ccc(-c2nc3cccc4c3n2CCNC4=O)cc1` [AG-14361], the Dose.FC.CTG with ISC-enriched organoids [1] (dose 0.08 uM) is −0.012 log 2 fold change; in the assay with ISC-enriched organoids [1] (dose 0.40 uM), −0.069 log 2 fold change; with ISC-enriched organoids [1] (dose 2.00 uM), 0.005 log 2 fold change; in the assay on ISC-enriched organoids [1] (dose 10.00 uM), −0.021 log 2 fold change. The Z.CTG in the assay on ISC-enriched organoids [1] (dose 0.08 uM) is on record as −0.028; with ISC-enriched organoids [1] (dose 0.40 uM), −0.165; with ISC-enriched organoids [1] (dose 2.00 uM), 0.012; in the assay with ISC-enriched organoids [1] (dose 10.00 uM) it was −0.050. For the same compound, the Dose.FC.LYZ.NS is recorded as 0.152 log 2 fold change with ISC-enriched organoids [2] (dose 0.08 uM), 0.036 log 2 fold change with ISC-enriched organoids [2] (dose 0.40 uM), 0.032 log 2 fold change in the assay with ISC-enriched organoids [2] (dose 2.00 uM) and −0.197 log 2 fold change with ISC-enriched organoids [2] (dose 10.00 uM). Further, the Z.LYZ.NS is given as 1.324 in the assay with ISC-enriched organoids [2] (dose 0.08 uM), 0.312 in the assay on ISC-enriched organoids [2] (dose 0.40 uM), 0.278 in the assay with ISC-enriched organoids [2] (dose 2.00 uM) and −1.713 in the assay on ISC-enriched organoids [2] (dose 10.00 uM). In addition, the Dose.FC.LYZ.S in the assay on ISC-enriched organoids [3] (dose 0.08 uM) is 0.100 log 2 fold change; with ISC-enriched organoids [3] (dose 0.40 uM) it was −0.001 log 2 fold change; with ISC-enriched organoids [3] (dose 2.00 uM), −0.065 log 2 fold change; in the assay with ISC-enriched organoids [3] (dose 10.00 uM), −0.189 log 2 fold change.
In the case of `CN1CCCCC1Cn1cc(C(=O)c2cc([N+](=O)[O-])ccc2I)c2ccccc21` (stereo not drawn) [AM1241], the Dose.FC.CTG is on record as 0.159 log 2 fold change in the assay with ISC-enriched organoids [1] (dose 0.08 uM), −0.054 log 2 fold change with ISC-enriched organoids [1] (dose 0.40 uM), −0.062 log 2 fold change in the assay with ISC-enriched organoids [1] (dose 2.00 uM) and −0.001 log 2 fold change in the assay with ISC-enriched organoids [1] (dose 10.00 uM). In addition, the Z.CTG is 0.379 in the assay on ISC-enriched organoids [1] (dose 0.08 uM), −0.129 with ISC-enriched organoids [1] (dose 0.40 uM), −0.147 in the assay on ISC-enriched organoids [1] (dose 2.00 uM) and −0.002 with ISC-enriched organoids [1] (dose 10.00 uM). Also, the Dose.FC.LYZ.NS is given as 0.052 log 2 fold change with ISC-enriched organoids [2] (dose 0.08 uM), 0.004 log 2 fold change in the assay on ISC-enriched organoids [2] (dose 0.40 uM), −0.014 log 2 fold change in the assay on ISC-enriched organoids [2] (dose 2.00 uM) and −0.003 log 2 fold change in the assay on ISC-enriched organoids [2] (dose 10.00 uM). For the same compound, the Z.LYZ.NS with ISC-enriched organoids [2] (dose 0.08 uM) is recorded as 0.454; in the assay with ISC-enriched organoids [2] (dose 0.40 uM) it was 0.035; in the assay on ISC-enriched organoids [2] (dose 2.00 uM), −0.123; in the assay on ISC-enriched organoids [2] (dose 10.00 uM), −0.028. The Dose.FC.LYZ.S was 0.046 log 2 fold change with ISC-enriched organoids [3] (dose 0.08 uM), 0.088 log 2 fold change in the assay on ISC-enriched organoids [3] (dose 0.40 uM), −0.017 log 2 fold change in the assay on ISC-enriched organoids [3] (dose 2.00 uM) and −0.080 log 2 fold change in the assay with ISC-enriched organoids [3] (dose 10.00 uM).
On to `O=C1NC(=O)/C(=C/c2ccc(-c3ccc(F)cc3O)o2)S1` [AS-252424], for which the Dose.FC.CTG with ISC-enriched organoids [1] (dose 0.08 uM) was 0.139 log 2 fold change; in the assay with ISC-enriched organoids [1] (dose 0.40 uM), −0.074 log 2 fold change; in the assay on ISC-enriched organoids [1] (dose 2.00 uM), −0.359 log 2 fold change; in the assay on ISC-enriched organoids [1] (dose 10.00 uM), −0.204 log 2 fold change. In addition, the Z.CTG in the assay with ISC-enriched organoids [1] (dose 0.08 uM) is listed as 0.333; in the assay with ISC-enriched organoids [1] (dose 0.40 uM), −0.176; in the assay with ISC-enriched organoids [1] (dose 2.00 uM), −0.858; with ISC-enriched organoids [1] (dose 10.00 uM) it was −0.487. The Dose.FC.LYZ.NS with ISC-enriched organoids [2] (dose 0.08 uM) was 0.070 log 2 fold change; in the assay on ISC-enriched organoids [2] (dose 0.40 uM), −0.042 log 2 fold change; in the assay with ISC-enriched organoids [2] (dose 2.00 uM), −0.080 log 2 fold change; in the assay with ISC-enriched organoids [2] (dose 10.00 uM) it was −0.077 log 2 fold change. Further, the Z.LYZ.NS in the assay on ISC-enriched organoids [2] (dose 0.08 uM) is 0.609; in the assay on ISC-enriched organoids [2] (dose 0.40 uM), −0.368; in the assay on ISC-enriched organoids [2] (dose 2.00 uM), −0.695; in the assay with ISC-enriched organoids [2] (dose 10.00 uM), −0.671. Further, the Dose.FC.LYZ.S in the assay on ISC-enriched organoids [3] (dose 0.08 uM) is on record as 0.072 log 2 fold change; in the assay on ISC-enriched organoids [3] (dose 0.40 uM) it was −0.008 log 2 fold change; in the assay on ISC-enriched organoids [3] (dose 2.00 uM), −0.074 log 2 fold change; in the assay on ISC-enriched organoids [3] (dose 10.00 uM), −0.022 log 2 fold change.
